Several values for one entry are separate records, joined by “and”; a condition that tells them apart may be missing. Equal entries are not always repeated.
Test system: BDF1 mice, Adenocarcinoma 755 s.c., tumor weight T/C
Test: NCI In Vivo Anticancer Drug Screen. Data for tumor model Adenocarcinoma 755 (subcutaneous) in B6D2F1 (BDF1) mice
Conditions: endpoint: mean tumor weight, schedule: Q01DX011 (ip), higher = larger tumour
How it was run: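 Compound activity was tested in mice carrying transplanted tumors. Survival or tumor size was measured, and each value is the treated-group measurement divided by that of the vehicle-treated control group (T/C).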

[1] = dose: 15.0 mg/kg/injection, vehicle: methylcellulose (MC)
[2] = dose: 31.0 mg/kg/injection, vehicle: methylcellulose (MC)
[3] = dose: 120.0 mg/kg/injection, vehicle: methylcellulose (MC)
[4] = dose: 125.0 mg/kg/injection, vehicle: methylcellulose (MC)
[5] = dose: 250.0 mg/kg/injection, vehicle: methylcellulose (MC)

O=NN(CCCl)C(=O)NCCCl
T/C (dose: 0.45 mg/kg/injection, vehicle: carboxymethylcellulose (CMC)): 63 % of control and 66 % of control and 75 % of control
T/C (dose: 0.9 mg/kg/injection, vehicle: carboxymethylcellulose (CMC)): 90 % of control and 98 % of control and 86 % of control
T/C (dose: 1.62 mg/kg/injection, vehicle: saline): 93 % of control and 99 % of control
T/C (dose: 1.75 mg/kg/injection, vehicle: carboxymethylcellulose (CMC)): 47 % of control
T/C (dose: 3.25 mg/kg/injection, vehicle: saline): 79 % of control and 84 % of control
T/C (dose: 3.5 mg/kg/injection, vehicle: carboxymethylcellulose (CMC)): 36 % of control and 40 % of control (2×)
T/C (dose: 6.5 mg/kg/injection, vehicle: carboxymethylcellulose (CMC)): 32 % of control and 34 % of control
T/C (dose: 6.5 mg/kg/injection, vehicle: saline): 59 % of control and 78 % of control
T/C (dose: 7.0 mg/kg/injection, vehicle: carboxymethylcellulose (CMC)): 18 % of control (2×) and 40 % of control
T/C (dose: 13.0 mg/kg/injection, vehicle: carboxymethylcellulose (CMC)): 13 % of control

CC1CN1P(=O)(N1CC2CCC(CC2)C1)N1CC1C (stereo not drawn)
T/C (dose: 7.0 mg/kg/injection, vehicle: saline): 109 % of control
T/C (dose: 14.0 mg/kg/injection, vehicle: saline): 87 % of control
T/C (dose: 28.0 mg/kg/injection, vehicle: saline): 87 % of control

Cc1cc(Nc2cccc(Cl)c2)nc(N)n1
T/C [1]: 114 % of control
T/C [2]: 56 % of control

CN(C)c1ccc(/C=C/c2ccnc3ccccc23)cc1
T/C (dose: 4.0 mg/kg/injection, vehicle: water): 117 % of control
T/C (dose: 8.0 mg/kg/injection, vehicle: water): 105 % of control
T/C (dose: 16.0 mg/kg/injection, vehicle: water): 72 % of control

CN1CCC(CN2c3ccccc3Sc3ccccc32)CC1
T/C [3]: 23 % of control

O=C(CCl)N1c2ccccc2Oc2cc3ccccc3cc21
T/C (dose: 4.4 mg/kg/injection, vehicle: methylcellulose (MC)): 78 % of control
T/C (dose: 6.6 mg/kg/injection, vehicle: methylcellulose (MC)): 62 % of control
T/C (dose: 10.0 mg/kg/injection, vehicle: methylcellulose (MC)): 54 % of control
T/C (dose: 14.0 mg/kg/injection, vehicle: methylcellulose (MC)): 45 % of control
T/C (dose: 14.0 mg/kg/injection, vehicle: other): 120 % of control
T/C (dose: 28.0 mg/kg/injection, vehicle: methylcellulose (MC)): 33 % of control
T/C (dose: 28.0 mg/kg/injection, vehicle: other): 87 % of control
T/C (dose: 56.0 mg/kg/injection, vehicle: other): 61 % of control
T/C (dose: 112.0 mg/kg/injection, vehicle: other): 94 % of control

C[N+](C)(C)c1ncnc2c1ncn2C1CCCCO1 (stereo not drawn)
T/C (dose: 33.0 mg/kg/injection, vehicle: saline): 58 % of control
T/C (dose: 100.0 mg/kg/injection, vehicle: saline): 12 % of control

O=C(Nc1ccc(C2=NC3CCCCC3N2)cc1)c1cccc(C(=O)Nc2ccc(C3=NC4CCCCC4N3)cc2)c1 (stereo not drawn)
T/C [1]: 73 % of control
T/C (dose: 30.0 mg/kg/injection, vehicle: methylcellulose (MC)): 81 % of control
T/C (dose: 60.0 mg/kg/injection, vehicle: methylcellulose (MC)): 73 % of control
T/C [3]: 59 % of control

CCCCNc1ncnc2c1cnn2C
T/C (dose: 4.0 mg/kg/injection, vehicle: carboxymethylcellulose (CMC)): 96 % of control
T/C (dose: 8.0 mg/kg/injection, vehicle: carboxymethylcellulose (CMC)): 84 % of control
T/C (dose: 16.0 mg/kg/injection, vehicle: carboxymethylcellulose (CMC)): 52 % of control
T/C (dose: 31.25 mg/kg/injection, vehicle: carboxymethylcellulose (CMC)): 30 % of control
T/C (dose: 32.0 mg/kg/injection, vehicle: carboxymethylcellulose (CMC)): 20 % of control

CC(Cl)CN(Cc1cc(O)c(CN(CC(C)Cl)CC(C)Cl)cc1O)CC(C)Cl (stereo not drawn)
T/C [4]: 58 % of control

Cc1cnc(SCc2ccc(Cl)cc2Cl)nc1SCc1ccc(Cl)cc1Cl
T/C [2]: 114 % of control
T/C [4]: 100 % of control
T/C [5]: 117 % of control

CCCCNCC(C)C(=O)OC (stereo not drawn)
T/C [1]: 92 % of control
T/C [2]: 93 % of control
T/C (dose: 62.0 mg/kg/injection, vehicle: methylcellulose (MC)): 87 % of control
T/C [4]: 104 % of control
T/C [5]: 104 % of control
